The results in this text go back to the supplement of paper PMC10307832.

Holding throughout (assay): relative viability (nuclei count vs DMSO), 5 days (fraction); higher = more cells survive
Compound in the test “Alpelisib + Navitoclax”: Cc1nc(NC(=O)N2CCC[C@H]2C(N)=O)sc1-c1ccnc(C(C)(C)C(F)(F)F)c1 [Alpelisib] + CC1(C)CCC(c2ccc(Cl)cc2)=C(CN2CCN(c3ccc(C(=O)NS(=O)(=O)c4ccc(N[C@H](CCN5CCOCC5)CSc5ccccc5)c(S(=O)(=O)C(F)(F)F)c4)cc3)CC2)C1 [Navitoclax] (partner 0.5 µM)
The method in brief:
(§1)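 The day after seeding in 1536-well plates, lung cancer cell lines were treated by pin tool with a single drug, or with a fixed anchor-drug dose together with five library-drug doses (not always all listed) in √10 steps. After 5 days, a combined fix-and-stain solution (final 0.05% Triton X-100, 1% formaldehyde, 1 ug/ml Hoechst) was added. Nuclei counted on 4× images gave relative viability as treated counts over vehicle counts, reported as the median of duplicate plates.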

Compound in the test “OSI-027 + Dasatinib”: COc1cccc2cc(-c3nc([C@H]4CC[C@H](C(=O)O)CC4)n4ncnc(N)c34)[nH]c12 [OSI-027] + Cc1nc(Nc2ncc(C(=O)Nc3c(C)cccc3Cl)s2)cc(N2CCN(CCO)CC2)n1 [Dasatinib] (partner 0.075 µM)
Summed up: as §1

Compound in the test “Vemurafenib + Vorinostat”: CCCS(=O)(=O)Nc1ccc(F)c(C(=O)c2c[nH]c3ncc(-c4ccc(Cl)cc4)cc23)c1F [Vemurafenib] + O=C(CCCCCCC(=O)Nc1ccccc1)NO [Vorinostat] (partner 1 µM)
Summed up:
as §1

Compound in the test “Vemurafenib + Decitabine”: CCCS(=O)(=O)Nc1ccc(F)c(C(=O)c2c[nH]c3ncc(-c4ccc(Cl)cc4)cc23)c1F [Vemurafenib] + Nc1ncn([C@H]2C[C@H](O)[C@@H](CO)O2)c(=O)n1 [Decitabine] (partner 2 µM)
Summed up:
as §1

Turning to NCI-H2228, the relative viability came out at 0.977 with Alpelisib + Navitoclax (first compound 0.04 µM); 1 in the test with Alpelisib + Navitoclax (first compound 0.1265 µM); 0.552 with Alpelisib + Navitoclax (first compound 0.4 µM); 0.51 with Alpelisib + Navitoclax (first compound 1.265 µM); 0.294 with Alpelisib + Navitoclax (first compound 4 µM); 0.506 with OSI-027 + Dasatinib (first compound 0.01 µM). Moreover, the relative viability was found to be 0.467 with OSI-027 + Dasatinib (first compound 0.03162 µM); 0.568 with OSI-027 + Dasatinib (first compound 0.1 µM); 0.445 in the test with OSI-027 + Dasatinib (first compound 0.3162 µM); 0.24 in the test with OSI-027 + Dasatinib (first compound 1 µM); 0.457 in the test with Vemurafenib + Vorinostat (first compound 0.03162 µM); 0.536 with Vemurafenib + Vorinostat (first compound 0.1 µM). For the same cell line, the relative viability in the test with Vemurafenib + Vorinostat (first compound 0.3162 µM) was found to be 0.589; with Vemurafenib + Vorinostat (first compound 1 µM), 0.595.
With NCI-H358, the relative viability in the test with OSI-027 + Dasatinib (first compound 0.01 µM) turned out to be 0.154; with OSI-027 + Dasatinib (first compound 0.03162 µM) it was 0.183; with OSI-027 + Dasatinib (first compound 0.1 µM), 0.158; with OSI-027 + Dasatinib (first compound 0.3162 µM) it was 0.127; with OSI-027 + Dasatinib (first compound 1 µM) it was 0.132; with Vemurafenib + Decitabine (first compound 0.03162 µM) it was 0.211. For the same cell line, the relative viability with Vemurafenib + Decitabine (first compound 0.1 µM) was found to be 0.228; in the test with Vemurafenib + Decitabine (first compound 0.3162 µM), 0.226; with Vemurafenib + Decitabine (first compound 1 µM) it was 0.229; with Vemurafenib + Vorinostat (first compound 0.03162 µM), 0.671; in the test with Vemurafenib + Vorinostat (first compound 0.1 µM), 0.587; in the test with Vemurafenib + Vorinostat (first compound 0.3162 µM), 0.768. Also, the relative viability in the test with Vemurafenib + Vorinostat (first compound 1 µM) turned out to be 0.65.
As for NCI-H1648, the relative viability with Vemurafenib + Decitabine (first compound 0.1 µM) came out at 0.351; in the test with Vemurafenib + Decitabine (first compound 0.3162 µM), 0.762; with Vemurafenib + Decitabine (first compound 1 µM), 0.463; in the test with Vemurafenib + Vorinostat (first compound 0.1 µM), 0.315; with Vemurafenib + Vorinostat (first compound 0.3162 µM) it was 0.706; with Vemurafenib + Vorinostat (first compound 1 µM), 0.546.
Turning to NCI-H1299, the relative viability was 1.05 with Alpelisib + Navitoclax (first compound 0.04 µM); 1.05 with Alpelisib + Navitoclax (first compound 0.1265 µM); 1.07 with Alpelisib + Navitoclax (first compound 0.4 µM); 1.01 with Alpelisib + Navitoclax (first compound 1.265 µM); 1.02 with Alpelisib + Navitoclax (first compound 4 µM).
For the cell line NCI-H1703, the relative viability in the test with Alpelisib + Navitoclax (first compound 0.04 µM) amounted to 1.01; with Alpelisib + Navitoclax (first compound 0.1265 µM) it was 0.994; with Alpelisib + Navitoclax (first compound 0.4 µM), 0.71; with Alpelisib + Navitoclax (first compound 1.265 µM), 0.565; with Alpelisib + Navitoclax (first compound 4 µM), 0.464.
Turning to A549, the relative viability with Alpelisib + Navitoclax (first compound 0.04 µM) is 1.23; with Alpelisib + Navitoclax (first compound 0.1265 µM), 1.18; with Alpelisib + Navitoclax (first compound 0.4 µM) it was 1.06; in the test with Alpelisib + Navitoclax (first compound 1.265 µM), 0.851; with Alpelisib + Navitoclax (first compound 4 µM), 0.715; in the test with Vemurafenib + Decitabine (first compound 0.03162 µM), 0.163. Besides, the relative viability in the test with Vemurafenib + Decitabine (first compound 0.1 µM) amounted to 0.227; with Vemurafenib + Decitabine (first compound 0.3162 µM) it was 0.155; with Vemurafenib + Decitabine (first compound 1 µM), 0.224.
Take HCC-44: the relative viability with Alpelisib + Navitoclax (first compound 0.04 µM) was 0.949; with Alpelisib + Navitoclax (first compound 0.1265 µM), 0.983; with Alpelisib + Navitoclax (first compound 0.4 µM) it was 1.04; with Alpelisib + Navitoclax (first compound 1.265 µM), 0.802; in the test with Alpelisib + Navitoclax (first compound 4 µM), 0.735; with Vemurafenib + Decitabine (first compound 0.03162 µM), 0.869. The relative viability in the test with Vemurafenib + Decitabine (first compound 0.1 µM) is 1.02; in the test with Vemurafenib + Decitabine (first compound 0.3162 µM), 0.949; with Vemurafenib + Decitabine (first compound 1 µM), 1; with Vemurafenib + Vorinostat (first compound 0.03162 µM), 1.09; with Vemurafenib + Vorinostat (first compound 0.1 µM), 1.01; with Vemurafenib + Vorinostat (first compound 0.3162 µM) it was 1.09. Moreover, the relative viability with Vemurafenib + Vorinostat (first compound 1 µM) amounted to 1.16.
Turning to LCLC-103H, the relative viability turned out to be 0.48 in the test with OSI-027 + Dasatinib (first compound 0.01 µM); 0.497 with OSI-027 + Dasatinib (first compound 0.03162 µM); 0.434 in the test with OSI-027 + Dasatinib (first compound 0.1 µM); 0.439 in the test with OSI-027 + Dasatinib (first compound 0.3162 µM); 0.27 with OSI-027 + Dasatinib (first compound 1 µM); 0.698 with Vemurafenib + Decitabine (first compound 0.03162 µM). In addition, the relative viability was 0.714 in the test with Vemurafenib + Decitabine (first compound 0.1 µM); 0.717 in the test with Vemurafenib + Decitabine (first compound 0.3162 µM); 0.75 in the test with Vemurafenib + Decitabine (first compound 1 µM); 0.728 with Vemurafenib + Vorinostat (first compound 0.03162 µM); 0.791 in the test with Vemurafenib + Vorinostat (first compound 0.1 µM); 0.657 in the test with Vemurafenib + Vorinostat (first compound 0.3162 µM). Moreover, in the test with Vemurafenib + Vorinostat (first compound 1 µM), the relative viability is 0.721.
